Experimental data reported in ChEMBL document CHEMBL1201862, “PubChem BioAssay data set” (2004).
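Each compound was tested at five concentrations against cells in 96-well plates for 48 hours. GI50: concentration for 50% inhibition of growth.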 Active and inactive are the calls of the source. Cut-off read from the data, not from the text of the source: active = GI50 up to about 1.1 µM and inactive = higher.

What was measured:
Assay in all cases: NCI tumour cell line growth inhibition, 48 h
K562 = tested on: K562
SF-295 = tested on: SF-295
OVCAR-5 = tested on: OVCAR-5
SK-OV-3 = tested on: SK-OV-3
CCRF-CEM = tested on: CCRF-CEM
Hs-578T = tested on: Hs-578T
U-251 = tested on: U-251
NCI-H460 = tested on: NCI-H460
ACHN = tested on: ACHN
KM12 = tested on: KM12
786-0 = tested on: 786-0
T47D = tested on: T47D
SR = tested on: SR
A549 = tested on: A549
SK-MEL-5 = tested on: SK-MEL-5
UO-31 = tested on: UO-31
NCI-H226 = tested on: NCI-H226
SF-268 = tested on: SF-268
IGROV-1 = tested on: IGROV-1
BT-549 = tested on: BT-549

Which results are given for `CC(=O)c1sc2c(c1OC(=O)c1ccc(Cl)cc1)c(=O)n(-c1ccccc1)c(=S)n2-c1ccccc1`?
GI50 (K562): 9.04 µM (inactive); GI50 (SF-295): 0.953 µM (active); GI50 (OVCAR-5): 2.77 µM (inactive); GI50 (SK-OV-3): 1.21 µM (inactive); GI50 (CCRF-CEM): 1.06 µM (active); GI50 (Hs-578T): 2.08 µM (inactive); GI50 (U-251): 2.82 µM (inactive); GI50 (NCI-H460): 4.86 µM (inactive); GI50 (ACHN): 2.96 µM (inactive); GI50 (KM12): 10.9 µM (inactive); GI50 (786-0): 3.52 µM (inactive); GI50 (T47D): 12.2 µM (inactive); GI50 (SR): 3.88 µM (inactive); GI50 (A549): 25.4 µM (inactive); GI50 (SK-MEL-5): 2 µM (inactive); GI50 (UO-31): 3.06 µM (inactive); GI50 (NCI-H226): 1.59 µM (inactive); GI50 (SF-268): 4.56 µM (inactive); GI50 (IGROV-1): 8.89 µM (inactive)

How did the GI50 (K562) turn out when `Cc1ccc(C2SCc3nc4ccccc4n32)cc1` (configuration not stated) was run?
Its GI50 is 0.671 µM (active).

What about the GI50 (SF-295) of the same molecule?
The GI50 was 2.19 µM (inactive).

And the GI50 (OVCAR-5)?
The GI50 was 6.46 µM (inactive).

And the GI50 (SK-OV-3)?
The GI50 was 7.8 µM (inactive).

What about the GI50 (CCRF-CEM) of the same molecule?
The GI50 was 2.79 µM (inactive).

And the GI50 (Hs-578T)?
The GI50 was 2.61 µM (inactive).

And the GI50 (U-251)?
Its GI50 is 5.87 µM (inactive).

What about the GI50 (NCI-H460) of the same molecule?
Its GI50 is 3.76 µM (inactive).

What about the GI50 (ACHN) of the same molecule?
The GI50 was 5.32 µM (inactive).

And the GI50 (KM12)?
The GI50 was 1.51 µM (inactive).

And the GI50 (786-0)?
The GI50 was 5.62 µM (inactive).

And the GI50 (T47D)?
The GI50 was 10.3 µM (inactive).

And the GI50 (A549)?
The GI50 was 6.43 µM (inactive).

What about the GI50 (SK-MEL-5) of the same molecule?
Its GI50 is 1.53 µM (inactive).

What about the GI50 (UO-31) of the same molecule?
The GI50 was 5.36 µM (inactive).

What about the GI50 (NCI-H226) of the same molecule?
Its GI50 is 1.88 µM (inactive).

And the GI50 (SF-268)?
Its GI50 is 11.7 µM (inactive).

And the GI50 (IGROV-1)?
Its GI50 is 3.18 µM (inactive).

With `Cn1c(=O)oc2cc(C(=O)CN3CCN(Cc4ccc5c(c4)OCO5)CC3)c(Cl)cc21` as the molecule, how does the GI50 (K562) read?
The GI50 was > 100 µM (inactive).

And the GI50 (SF-295)?
The GI50 was > 100 µM (inactive).

What about the GI50 (OVCAR-5) of the same molecule?
The GI50 was > 100 µM (inactive).

And the GI50 (SK-OV-3)?
Its GI50 is > 100 µM (inactive).

And the GI50 (CCRF-CEM)?
Its GI50 is > 100 µM (inactive).

What about the GI50 (Hs-578T) of the same molecule?
The GI50 was > 100 µM (inactive).

And the GI50 (U-251)?
The GI50 was > 100 µM (inactive).

What about the GI50 (NCI-H460) of the same molecule?
Its GI50 is > 100 µM (inactive).

What about the GI50 (ACHN) of the same molecule?
Its GI50 is > 100 µM (inactive).

What about the GI50 (786-0) of the same molecule?
Its GI50 is > 100 µM (inactive).

What about the GI50 (T47D) of the same molecule?
The GI50 was > 100 µM (inactive).

What about the GI50 (SR) of the same molecule?
The GI50 was > 100 µM (inactive).

What about the GI50 (SK-MEL-5) of the same molecule?
Its GI50 is > 100 µM (inactive).

And the GI50 (UO-31)?
The GI50 was 94 µM (inactive).

And the GI50 (SF-268)?
Its GI50 is > 100 µM (inactive).

What about the GI50 (IGROV-1) of the same molecule?
The GI50 was > 100 µM (inactive).

Which results are given for `Cc1cccc(C)c1NC(=O)CCC(=O)CC(=O)C(C)C`?
GI50 (K562): > 100 µM (inactive); GI50 (SF-295): > 100 µM (inactive); GI50 (OVCAR-5): > 100 µM (inactive); GI50 (SK-OV-3): > 100 µM (inactive); GI50 (CCRF-CEM): > 100 µM (inactive); GI50 (U-251): > 100 µM (inactive); GI50 (NCI-H460): > 100 µM (inactive); GI50 (ACHN): > 100 µM (inactive); GI50 (KM12): > 100 µM (inactive); GI50 (786-0): > 100 µM (inactive); GI50 (SR): > 100 µM (inactive); GI50 (A549): > 100 µM (inactive); GI50 (SK-MEL-5): > 100 µM (inactive); GI50 (UO-31): > 100 µM (inactive); GI50 (NCI-H226): > 100 µM (inactive); GI50 (SF-268): > 100 µM (inactive); GI50 (IGROV-1): > 100 µM (inactive)

Which results are given for `O=C(/C=C/c1ccc(O)c([N+](=O)[O-])c1)CC(=O)/C=C/c1ccc(O)c([N+](=O)[O-])c1`?
GI50 (SF-295): 62.5 µM (inactive); GI50 (OVCAR-5): 44.9 µM (inactive); GI50 (SK-OV-3): 83.2 µM (inactive); GI50 (CCRF-CEM): 30.5 µM (inactive); GI50 (Hs-578T): > 100 µM (inactive); GI50 (U-251): 21.4 µM (inactive); GI50 (NCI-H460): 30.5 µM (inactive); GI50 (ACHN): > 100 µM (inactive); GI50 (KM12): 30.5 µM (inactive); GI50 (786-0): > 100 µM (inactive); GI50 (BT-549): > 100 µM (inactive); GI50 (A549): 53.7 µM (inactive); GI50 (SK-MEL-5): 49.7 µM (inactive); GI50 (UO-31): > 100 µM (inactive); GI50 (NCI-H226): > 100 µM (inactive); GI50 (SF-268): 54.6 µM (inactive); GI50 (IGROV-1): 24.9 µM (inactive)

What does the source list for `Cn1c(=O)n2n(c1=O)[C@@H](c1ccccc1)[C@H]2c1ccccc1`?
GI50 (K562): 64.3 µM (inactive); GI50 (SF-295): > 100 µM (inactive); GI50 (OVCAR-5): > 100 µM (inactive); GI50 (SK-OV-3): > 100 µM (inactive); GI50 (CCRF-CEM): > 100 µM (inactive); GI50 (Hs-578T): > 100 µM (inactive); GI50 (U-251): > 100 µM (inactive); GI50 (NCI-H460): > 100 µM (inactive); GI50 (ACHN): > 100 µM (inactive); GI50 (KM12): > 100 µM (inactive); GI50 (786-0): > 100 µM (inactive); GI50 (BT-549): > 100 µM (inactive); GI50 (SR): > 100 µM (inactive); GI50 (A549): > 100 µM (inactive); GI50 (SK-MEL-5): > 100 µM (inactive); GI50 (UO-31): > 100 µM (inactive); GI50 (NCI-H226): > 100 µM (inactive); GI50 (IGROV-1): > 100 µM (inactive)

`NC(=O)C(=O)N/N=C1\C(=O)N(c2ccc(Cl)cc2Cl)C(=O)C1C(=O)Nc1ccc(Cl)cc1Cl` (configuration not stated) was tested. Which GI50 (K562) did it give?
Its GI50 is > 100 µM (inactive).

And the GI50 (SF-295)?
The GI50 was > 100 µM (inactive).

What about the GI50 (OVCAR-5) of the same molecule?
The GI50 was > 100 µM (inactive).

What about the GI50 (SK-OV-3) of the same molecule?
The GI50 was > 100 µM (inactive).

And the GI50 (CCRF-CEM)?
The GI50 was > 100 µM (inactive).

What about the GI50 (U-251) of the same molecule?
The GI50 was > 100 µM (inactive).

What about the GI50 (NCI-H460) of the same molecule?
Its GI50 is > 100 µM (inactive).

And the GI50 (ACHN)?
The GI50 was > 100 µM (inactive).

And the GI50 (KM12)?
The GI50 was > 100 µM (inactive).

What about the GI50 (786-0) of the same molecule?
Its GI50 is > 100 µM (inactive).

What about the GI50 (SR) of the same molecule?
The GI50 was > 100 µM (inactive).

What about the GI50 (A549) of the same molecule?
Its GI50 is > 100 µM (inactive).

What about the GI50 (SK-MEL-5) of the same molecule?
Its GI50 is > 100 µM (inactive).

And the GI50 (UO-31)?
Its GI50 is > 100 µM (inactive).

And the GI50 (NCI-H226)?
Its GI50 is > 100 µM (inactive).

What about the GI50 (SF-268) of the same molecule?
Its GI50 is > 100 µM (inactive).

And the GI50 (IGROV-1)?
The GI50 was > 100 µM (inactive).
